Laboratory results published in BindingDB's records for doi:10.1158/0008-5472.can-03-2847 (The University of Birmingham, 2004).

Tests used:
[1] = biological target: T1, Aldo-keto reductase family 1 member C3 (Homo sapiens, UniProt P42330); assay: 3alpha-Androstanediol Oxidation Inhibition Assay; details: pH 7; 30 °C
T1 sequence (P42330 whole entry): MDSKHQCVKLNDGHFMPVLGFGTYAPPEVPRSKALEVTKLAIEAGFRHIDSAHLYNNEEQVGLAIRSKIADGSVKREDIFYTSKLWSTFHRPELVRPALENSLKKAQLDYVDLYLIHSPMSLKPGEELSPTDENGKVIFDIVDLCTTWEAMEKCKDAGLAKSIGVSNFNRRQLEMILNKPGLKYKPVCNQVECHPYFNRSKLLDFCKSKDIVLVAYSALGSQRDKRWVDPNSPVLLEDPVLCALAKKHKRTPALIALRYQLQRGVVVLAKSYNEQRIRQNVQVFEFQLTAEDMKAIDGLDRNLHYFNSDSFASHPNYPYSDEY
Protocol: A fluorescence assay was used to determine the kinetic constants for the oxidation of 3alpha-androstanediol. The fluorescence emission of NADPH at 450 nm (5-nm slit width) with excitation at 340 nm (15-nm slit width) was monitored. A standard curve was constructed by monitoring fluorescence changes with incremental additions of NADPH. […] The type of inhibition and the inhibition constants were calculated using the Leonora program. All reactions were initiated by the addition of enzyme.

[2] = biological target: T1, Aldo-keto reductase family 1 member C3; assay: Androsterone Reduction Inhibition Assay; details: pH 7; 30 °C
Protocol: Enzyme activity was measured in the reductive direction against varying concentrations of androsterone. Initial velocities were measured by observing the rate of change of absorbance of pyridine nucleotide at 340 nm. Calculation of kcat and Km values used the Leonora program, yielding estimates of the kinetic constants. […] The type of inhibition and the inhibition constants were calculated using the Leonora program. All reactions were initiated by the addition of enzyme.

Ki [1]: 140 nM
Ki [2]: 3100 nM
Structure (SMILES): O=C(O)c1ccccc1Nc1cccc(C(F)(F)F)c1 [2-{[3-(trifluoromethyl)phenyl]amino}benzoic acid]
